Assay results reported in ChEMBL document CHEMBL4823287, “Design and synthesis of novel 5-alkynyl pyrimidine nucleosides derivatives: Influence of C-6-substituent on antituberculosis activity” (2021).
In brackets after ≈: the same amount, converted by molar mass.

Key:
[1] = test system: Mycobacterium tuberculosis; test: Antimycobacterial activity against Mycobacterium bovis BCG assessed as inhibition of bacterial growth at 25 ug/ml measured by microplate alamar blue assay; type: functional; settings: variant bovis BCG
[2] = test system: Mycobacterium tuberculosis; test: Antimycobacterial activity against Mycobacterium bovis BCG assessed as inhibition of bacterial growth at 1 to 5 ug/ml measured by microplate alamar blue assay; type: functional, variant bovis BCG; settings: dose 1-5 µg/ml; at 1 to 5 µg/mL
[3] = test system: Mycobacterium tuberculosis; test: Antimycobacterial activity against Mycobacterium bovis BCG assessed as inhibition of bacterial growth at 50 ug/ml measured by microplate alamar blue assay; type: functional; settings: variant bovis BCG
[4] = test system: Mycobacterium tuberculosis; test: Antimycobacterial activity against Mycobacterium bovis BCG assessed as inhibition of bacterial growth at measured by microplate alamar blue assay; type: functional; settings: variant bovis BCG
[5] = test system: Mycobacterium tuberculosis; test: Antimycobacterial activity against Mycobacterium bovis BCG assessed as inhibition of bacterial growth at 1 ug/ml measured by microplate alamar blue assay; type: functional; settings: variant bovis BCG
[6] = test system: Mycobacterium tuberculosis; test: Antimycobacterial activity against Mycobacterium bovis BCG assessed as inhibition of bacterial growth at 100 ug/ml measured by microplate alamar blue assay; type: functional; settings: variant bovis BCG
[7] = test system: Mycobacterium tuberculosis; test: Antimycobacterial activity against Mycobacterium bovis BCG assessed as inhibition of bacterial growth at 10 ug/ml measured by microplate alamar blue assay; type: functional; settings: variant bovis BCG
[8] = test system: Mycobacterium tuberculosis; test: Antimycobacterial activity against Mycobacterium bovis BCG assessed as inhibition of bacterial growth at 5 ug/ml measured by microplate alamar blue assay; type: functional; settings: variant bovis BCG

SMILES	inhibition at 25 µg/mL [1] [%]	inhibition (INH) [2] [%]	inhibition at 50 µg/mL [3] [%]	MIC50 [4] [µg/mL]	inhibition at 1 µg/mL [5] [%]	inhibition at 100 µg/mL [6] [%]	inhibition at 10 µg/mL [7] [%]	inhibition at 5 µg/mL [8] [%]
CCCCC#Cc1c(C)n([C@@H]2O[C@H](CO)[C@@H](O)[C@H]2O)c(=O)[nH]c1=O	60	10	100	18.6 (≈ 55 µM)	–	–	–	–
Cc1c(C#CC(O)c2ccccc2)c(=O)[nH]c(=O)n1[C@@H]1O[C@H](CO)[C@@H](O)[C@H]1O (stereo partly specified)	–	–	–	0.7 (≈ 1.8 µM)	100	–	–	–
CC#Cc1c(C)n([C@@H]2O[C@H](CO)[C@@H](O)[C@H]2O)c(=O)[nH]c1=O	–	–	50	50 (≈ 169 µM)	–	90	0	–
CCCCCCC#Cc1c(C)n([C@@H]2O[C@H](CO)[C@@H](O)[C@H]2O)c(=O)[nH]c1=O	–	–	60	< 50	–	90	–	–
Cc1c(C#CC2CC2)c(=O)[nH]c(=O)n1[C@@H]1O[C@H](CO)[C@@H](O)[C@H]1O	–	50	–	2.1 (≈ 6.52 µM)	–	90	80	–
Cc1c(C#C[Si](C)(C)C)c(=O)[nH]c(=O)n1[C@@H]1O[C@H](CO)[C@@H](O)[C@H]1O	–	–	–	–	–	0	–	–
CCCC#Cc1c(C)n([C@@H]2O[C@H](CO)[C@@H](O)[C@H]2O)c(=O)[nH]c1=O	–	–	60	< 50	–	90	0	–
Cc1c(C#CC2CCCCC2)c(=O)[nH]c(=O)n1[C@@H]1O[C@H](CO)[C@@H](O)[C@H]1O	70	10	100	14.7 (≈ 40.3 µM)	–	–	–	–
Cc1c(C#Cc2ccccc2)c(=O)[nH]c(=O)n1[C@@H]1O[C@H](CO)[C@@H](O)[C@H]1O	–	50	75	2.2 (≈ 6.14 µM)	–	90	75	–
CCC#Cc1c(C)n([C@@H]2O[C@H](CO)[C@@H](O)[C@H]2O)c(=O)[nH]c1=O	–	–	50	50 (≈ 161 µM)	–	90	0	–
Cc1c(C#CCC(C)C)c(=O)[nH]c(=O)n1[C@@H]1O[C@H](CO)[C@@H](O)[C@H]1O	60	10	100	18.9 (≈ 55.9 µM)	–	–	–	–
N[C@@H]1CONC1=O [CYCLOSERINE]	–	–	–	5.1 (≈ 50 µM)	–	–	71	50
NNC(=O)c1ccncc1 [ISONIAZID]	–	–	–	0.9 (≈ 6.56 µM)	100	–	–	–
CO[C@H]1/C=C/O[C@@]2(C)Oc3c(C)c(O)c4c(O)c(c(/C=N/N5CCN(C)CC5)c(O)c4c3C2=O)NC(=O)/C(C)=C\C=C\[C@H](C)[C@H](O)[C@@H](C)[C@@H](O)[C@@H](C)[C@H](OC(C)=O)[C@@H]1C [RIFAMPIN]	–	–	–	0.8 (≈ 0.972 µM)	100	–	–	–
